From US20230310441A1, “TREATMENT FOR SCHIZOPHRENIA” (TAKEDA PHARMACEUTICAL COMPANY, priority 2020, published 2023)
Marks after values point to notes of the source that are not given here.

System: endogenous dopamine release in the human brain
Test: [^11C]PHNO PET of endogenous dopamine release after d-AMPH challenge
Assay type: in vivo
Conditions: for effect on [^11C]PHNO BPND: d-AMPH 0.5 mg/kg single oral dose, all ROI; for ΔBPND^AMPH Mean (SD), Ca / ΔBPND^AMPH Mean (SD), GP / ΔBPND^AMPH Mean (SD), Pu / ΔBPND^AMPH Mean (SD), SN / ΔBPND^AMPH Mean (SD), VSt: d-AMPH only scan
Experimental: A T1-weighted magnetic resonance imaging (MRI) scan of the brain, performed at screening, was used to obtain anatomical information required for PET data analysis. Each subject underwent three [^11C]PHNO PET scans, one at baseline, the second approximately 3 h after a single oral dose of dex-amphetamine (d-AMPH, 0.5 mg/kg), and the third approximately 5 h after a single oral dose of Compound (I) (20 or 40 mg) and 3 h after an oral dose of dex-amphetamine (d-APMH) (0.5 mg/kg) (FIG. 2).
Subjects were positioned in the PET scanner, after the insertion of a venous cannula in an antecubital or forearm vein. Soft padding and head restraints were used to minimize head movement during data acquisition. All dynamic [^11C]PHNO PET scans were acquired on Siemens Biograph 6 PET/CT scanners (Hi-Rez (PET/CT1) or a TruePoint with TrueV, Siemens Healthcare, Erlangen, Germany). All scans for a particular subject were acquired on the same scanner. A low-dose computed tomography (CT) scan was performed immediately before each PET study to estimate signal attenuation. Following an intravenous bolus injection of [^11C]PHNO, dynamic emission data were acquired for 90 min in 26 frames of increasing duration. The dynamic images were reconstructed using Fourier rebinning and a 2D filtered discrete inverse Fourier transform algorithm with 5 mm isotropic Gaussian filter on a 128×128 matrix with 2.6 zoom giving 2 mm isotropic voxels. Appropriate corrections were applied for attenuation, randoms, and scatter.
The primary set of ROIs defined were the ventral striatum (VSt), putamen (Pu) and cerebellum. […] The cerebellum was used as a reference region. An additional set of ROIs including the caudate nucleus (Ca), globus pallidus (GP) and substantia nigra (SN) was also evaluated.
Regional TAC data extracted from the PET images were fitted using a basis function implementation of the SRTM (Gunn et al., 1997) to estimate the binding potential relative to the non-displaceable component (BPND) for each PET scan, as a measure of specific binding (Innis et al., 2007).
Reduction in [^11C]-PHNO specific binding following a d-AMPH challenge (ΔBPND^APMH) was quantified as percent change in postdose BPND (BPND^AMPH) from baseline BPND (BPND^BL):
Reduction in [^11C]-PHNO specific binding following a combination of Compound (I) and d-AMPH (ΔBPND^APMH+C1) was quantified as percent change in postdose BPND (BPND^AMPH+C1) from baseline BPND (BPND^BL):
The effect of Compound (I) (ΔΔBPND) was quantified as the percent change BPND in ΔBPND^APMH+C1 compared to ΔBPND^APMH:
All statistical comparisons were conducted using Student's t-tests for each ROI, using paired tests for within subject comparisons, and unpaired tests for between group comparisons.

[1] = subjects of the 20 mg Compound (I) group
[2] = subjects of the 40 mg Compound (I) group

## C[C@H](N)Cc1ccccc1 [d-AMPH, Dextroamphetamine, reference compound]
  effect on [^11C]PHNO BPND: significant reduction in BPND
Listed as d-APMH
  effect on [^11C]PHNO BPND: robust reduction of [^11C]PHNO BPND
All subjects
  ΔBPND^AMPH Mean (SD), Ca: 15.6 (5.7) * %
  ΔBPND^AMPH Mean (SD), GP: 15.9 (7.7) * %
  ΔBPND^AMPH Mean (SD), Pu: 21.6 (5.1) * %
  ΔBPND^AMPH Mean (SD), SN: 27.8 (10.9) * %
  ΔBPND^AMPH Mean (SD), VSt: 26.5 (7.7) * %
[1]
  ΔBPND^AMPH Mean (SD), Ca: 17.8 (5.7) * %
  ΔBPND^AMPH Mean (SD), GP: 17.6 (1.5) * %
  ΔBPND^AMPH Mean (SD), Pu: 23.6 (4.6) * %
  ΔBPND^AMPH Mean (SD), SN: 28.4 (9.0) * %
  ΔBPND^AMPH Mean (SD), VSt: 25.4 (8.0) * %
[2]
  ΔBPND^AMPH Mean (SD), Ca: 13.4 (5.3) * %
  ΔBPND^AMPH Mean (SD), GP: 14.2 (11.1) * %
  ΔBPND^AMPH Mean (SD), Pu: 19.6 (5.3) * %
  ΔBPND^AMPH Mean (SD), SN: 27.2 (13.6) * %
  ΔBPND^AMPH Mean (SD), VSt: 27.6 (8.2) * %
